Patent US20060264411A1, “Control of biofilm formation” (priority 2005, published 2006)

Key:
[1] = system: E. coli clinical strain UTI89; assay: Invasion of E. coli UTI89 into bladder epithelial cells; assay type: cell-based
Protocol: The effect of test compounds on bacterial invasion of E. coli clinical strain UTI89 was studied as described in Elsinghorst, et al. 1994, Methods Enzymol, 236:405-420; and Martinez et al., 2000, EMBO J., 19:2803-2812. Epithelial bladder cells were grown in plates. Asiatic acid, corosolic acid, or ursolic acid were added at concentrations of 10 μg/ml, 20 μg/ml, or 40 μg/ml to bacteria and epithelial cells for approximately 5, 15, 30, or 60 minutes with approximately 10^7 CFU of E. coli. Binding was assessed at time zero and invasion was assessed at approximately 5, 15, 30, or 60 minutes from completing the mixture of compound, bacteria, and epithelial cells. As a control ethanol was added to cells to a final concentration of 0.1%. The effect of bacterial viability and bacterial adherence during the infection period was evaluated according to the methods described in Martinez et al., 2000, EMBO J., 19:2803-2812.

E. coli UTI89[pCOMGFP] = assay: Biofilm pods / intracellular bacterial communities (IBC) in mouse bladders, confocal microscopy; assay type: in vivo, C3H/HeN mice; settings: for reduction in biofilm pods or intracellular bacterial communities (IBC) in the bladders of mice as compared to the controls: experiment 1: 40 μg/ml intravesical, 30 min pre-incubation, 10^8 CFU, five hours
Protocol: The experiment was performed using the procedures described in Justice, S. et al., Differentiation and development pathways of uropathogenic Escherichia coli in urinary tract pathogenesis.PNAS, 2004, 101(5), p. 1333-1338. Briefly, E. coli UTI89[pCOMGFP] was prepared after retrieval from frozen stocks by inoculating in LB medium statically for approximately 20 hours. Cells were harvested and suspended in 1 ml of PBS. Cells were diluted to achieve approximately a 10^8 CFU or 10^7 CFU input into C3H/HeN mice (2 mice per group).
Mice were deprived of water for approximately two hours. In experiment 1, all mice were anesthetized with 0.15 cc ketamine cocktail. In experiment 2, all mice were anesthetized with isofluorane. In experiment 1, urine was dispelled from the bladders and approximately 40 μg/ml of test compound or an appropriate amount of ethanol as control was introduced into the bladders via catheterization of the urethra using a tubing coated tuberculin syringe. 30 minutes was allowed to elapse. In experiment 2, bladders were not pre-incubated with test compounds. Bladders were then expelled and an inoculum of 10^8 CFU (Experiment 1) or 10^7 CFU (Experiment 2) of E. coli containing 40 μg/ml of test compound or equivalent amount of ethanol as controls were introduced into the bladders as indicated above.
In experiment 1 five hours elapsed and in experiment 2 six hours elapsed, and then mice were anesthetized and sacrificed. The bladders were removed, bisected, stretched, and fixed in 3% paraformaldehyde for 1 hour at room temperature. Bladders were then permeabilized in 0.01% Triton/PBS for 10 minutes and counter stained with TOPRO3 (Molecular Probes) for 10 minutes for visualization by confocal microscopy. Bladders were mounted on Prolong antifade (Molecular Probes).

[2] = system: E. coli clinical strain UTI89; assay: Biofilm formation inhibition, crystal violet, E. coli clinical strain UTI89; assay type: cell-based; settings: Escherichia coli, 20 ug/ml, read-out: inhibited biofilm formation
Protocol: (§1) Biofilm inhibition experiments were conducted using an assay adapted from the reported protocol described in Pratt and Kolter, 1998, Molecular Microbiology, 30: 285-293; Li et al., 2001, J. Bacteriol., 183: 897-908. E. coli clinical strain UTI89 was grown in LB in 96 well plates at room temperature for one or two days without shaking. E. coli laboratory strain JM109 was grown in LB plus 0.2% glucose in 96 well plates at room temperature for one day without shaking. To quantify the biofilm mass, the suspension culture was poured out and the biofilm was washed three times with water. The biofilm was stained with 0.1% crystal violet for 20 minutes. The plates were then washed three times with water. OD reading at 540 nm was measured to quantify the biofilm mass at the bottom of the wells. Then 95% ethanol was added to dissolve the dye at the bottom and on the wall and the OD reading at 540 nm was measured to quantify the total biofilm mass. To study the overall effect of the compounds (3.6 mg/mL in 100% ethanol as stock solution), it was added with the inoculation and a time course of biofilm mass was measured. Appropriate amounts of 100% ethanol were added to each sample to eliminate the effect of solvent. Each condition had 3-4 replicates on each plate and was performed over multiple days.

[3] = system: P. aeruginosa strain PAO1; assay: Rotating disk reactor (RDR) biofilm test with and without tobramycin; assay type: cell-based, Pseudomonas aeruginosa; settings: test compound 100 μg/ml 24 h; for Test Compound, log10 CFU: no tobramycin; for Tobramycin and Test Compound, log10 CFU: then tobramycin 100 μg/ml 2 h
Protocol: Biofilm formation of P. aeruginosa was evaluated using a standardized biofilm method with a rotating disk reactor (RDR). This method provides a model resembling the formation of biofilms in cystic fibrosis patients. The rotating disk reactor consists of a one-liter glass beaker fitted with a drain spout. The bottom of the vessel contains a magnetically driven rotor with six 1.27 cm diameter coupons constructed from polystyrene. The rotor consists of a star-head magnetic stir bar upon which a disk was affixed to hold the coupons. The vessel with the stir bar was placed on a stir plate and rotated to provide fluid shear. A nutrient solution (AB Trace Medium with 0.3 mM glucose, see Table 1 below for composition) was added through a stopper in the top of the reactor at a flow rate of 5 ml/min. The reactor volume was approximately 180 ml and varied slightly between reactors depending on the placement of the drain spout and the rotational speed of the rotor. At a volume of 180 ml, the residence time of the reactors was 36 minutes. The reactors were operated at room temperature (c.a. 26° C.).
For each test, two RDRs were operated in parallel with one receiving test compound and the other serving as an untreated control. The RDRs were sterilized by autoclave, then filled with sterile medium and inoculated with P. aeruginosa strain PAO1. The reactors were then incubated at room temperature in batch mode (no medium flow) for a period of 24 hours, after which the flow was initiated for a further 24 hour incubation. Test compounds were dissolved in 10 ml ethanol to achieve a concentration of 1.8 mg/ml. After the 48 hours of biofilm development described above, the 10 ml of ethanol containing the test compounds were added to the reactor to achieve a final concentration of approximately 50, 100, or 200 μg/ml. Control reactors received 10 ml of ethanol. The reactors were then incubated for an additional 24 hours in batch (no flow) mode. After this incubation period, the six coupons were removed from each reactor and placed in 12-well polystyrene tissue culture plates with wells containing either 2 ml of a 100 μg/ml tobramycin solution or 2 ml of phosphate-buffered saline (PBS). These plates were incubated at room temperature for two hours. The coupons were then rinsed by three transfers to plates containing 2 ml of fresh PBS. For each two RDR reactors run in parallel, four sets of three coupons were obtained: one set with no test compound treatment and no tobramycin treatment, one set with no test compound treatment and tobramycin treatment, one set treated with a test compound treatment and no tobramycin treatment, and one set treated with a test compound treatment and tobramycin. After rinsing, one coupon of each set of three was stained with a LIVE/DEAD® BacLight™ Bacterial Viability Kit (Molecular Probes, Eugene Oreg.) and imaged using epifluorescent microscopy. The remaining two coupons were placed in 10 ml of PBS and sonicated for five minutes to remove and disperse biofilm cells. The resulting bacterial suspensions were then serially diluted in PBS and plated on tryptic soy agar plates for enumeration of culturable bacteria. The plates were incubated for 24 hours at 37° C. before colony forming units (CFU) were determined.
The results are averages from experiments performed on three separate days for each test compound. The values reported are as log10 CFU.

[4] = system: E. coli laboratory strain JM109; assay: Biofilm formation inhibition, crystal violet, E. coli laboratory strain JM109; assay type: cell-based; settings: Escherichia coli, read-out: inhibited biofilm formation as compared to the controls
Protocol: as §1

[5] = Bladder concentrations in rats after oral dose; settings: rat, in vivo; rats; 50 mg/kg oral, single bolus in 50% Labrasol; at 24 hours; read-out: concentration in the bladder
Protocol: Pharmacokinetic studies of asiatic acid and madecassic acid in rats were performed separately. Asiatic acid and madecassic acid were evaluated at 50 mg/kg (oral). Two animals were assigned to each group. Prior to dosing, a baseline blood sample was taken from each animal. At time zero, asiatic acid and madecassic acid, a single bolus dose in 50% Labrasol (Gattefosse) was given to each animal. Bladders were analyzed at 24 hours. Concentrations of both asiatic acid and madecassic acid in the bladder were approximately 30 μg/g at 24 hours.

bacterial invasion = assay: Bacterial invasion statement of Example 9; settings: within 15 minutes of administration
cysB gene = settings: examples of U.S. patent application Ser. No. 11/085,279; cited from earlier work
[6] = 40 μg/ml, 60 minutes, separate experiments (n=4-7)

SMILES	reduced invasion of E. coli into bladder epithelial cells as compared to the controls ([1]; 20 μg/ml, 60 minutes, separate experiments (n=4)) [%]	reduced invasion of E. coli into bladder epithelial cells as compared to the controls ([1]; 40 μg/ml, 5 minutes, time series, triplicate) [%]	reduced invasion of E. coli into bladder epithelial cells as compared to the controls ([1]; 40 μg/ml, 15 minutes, time series, triplicate) [%]	reduced invasion of E. coli into bladder epithelial cells as compared to the controls [1, 6] [%]	reduced invasion of E. coli into bladder epithelial cells as compared to the controls ([1]; 40 μg/ml, 60 minutes, time series, triplicate) [%]	reduction in biofilm pods or intracellular bacterial communities (IBC) in the bladders of mice as compared to the controls (E. coli UTI89[pCOMGFP]) [%]	reduction in large biofilm pods or large IBC in the bladders of mice as compared to the controls (E. coli UTI89[pCOMGFP]; experiment 2: 40 μg/ml with inoculum, no pre-incubation, 10^7 CFU, six hours) [%]	appearance of E. coli in mouse bladder, confocal microscopy image (FIG. 3) (E. coli UTI89[pCOMGFP]; mouse inoculated with E. coli UTI89 and compound, control shows an IBC (FIG. 2))	inhibition at 20 µg/mL [2] [%]	Test Compound, log10 CFU [3] [log10 CFU]	Tobramycin and Test Compound, log10 CFU [3] [log10 CFU]	inhibition at 5 µg/mL ([4]; JM 109, 5 ug/ml) [%]	inhibition at 10 µg/mL ([4]; JM 109, 10 ug/ml) [%]	concentration at 24 h [5] [ng/g]	bacterial invasion (in words) (bacterial invasion)	expression of a cysB gene in E. coli (cysB gene)
C[C@H]1[C@H](C)CC[C@]2(C(=O)O)CC[C@]3(C)C(=CC[C@@H]4[C@@]5(C)C[C@@H](O)[C@H](O)C(C)(C)[C@@H]5CC[C@]43C)[C@H]12 [Corosolic acid, corosolic acid]	65	10	70	90	90	94	~60	small collection of E coli	~85	7.3	4.2	–	–	–	–	–
C[C@H]1[C@H](C)CC[C@]2(C(=O)O)CC[C@]3(C)C(=CC[C@@H]4[C@@]5(C)C[C@@H](O)[C@H](O)[C@@](C)(CO)[C@@H]5[C@H](O)C[C@]43C)[C@H]12 [Madecassic acid, madecassic acid]	–	–	–	–	–	–	–	–	–	7.5	5.5	~60	~75	~30000	significantly reduced bacterial invasion	–
C[C@H]1[C@H](C)CC[C@]2(C(=O)O)CC[C@]3(C)C(=CC[C@@H]4[C@@]5(C)CC[C@H](O)C(C)(C)[C@@H]5CC[C@]43C)[C@H]12 [ursolic acid]	–	–	–	76	–	70	–	–	–	–	–	–	–	–	–	modulate the expression of a cysB gene
